Results reported in patent publication US11426347B2, “Food for improving intraintestinal environment” (AJINOMOTO CO., INC., priority 2017, dated 2022).

How the values were obtained:
Assay type in all cases: cell-based
bifidobacteria [1] = experiment: Experimental Example 1-1: addition of amino acid and fructo-oligosaccharide to human feces suspension, anaerobic culture, quantitative PCR of bifidobacteria; settings: amino acid added together with 0.5% FOS, compared with FOS alone, human feces suspension in PBS, 37° C., 4 days
Procedure: The PBS solutions for the Examples and Comparative Examples shown in Table 1-1 were prepared and used as media for a feces culture. PBS alone was used as a control. Fructo-oligosaccharide (FOS) manufactured by Wako Pure Chemical Industries, Ltd. (#064-02385) was used.
(§1) Thereafter, 10 ml of each solution was dispensed into glass vials and the glass vials were sterilized by autoclave, made anaerobic, and sealed with a butyl rubber stopper. The feces suspension was prepared by collecting about 10 g of feces from 3 healthy individuals (one man and two women) in their 20 s to 40 s and suspending same in 80 ml of anaerobic PBS. The feces suspension was added to each vial by 0.5 ml, placed in an incubator at 37° C., and anaerobically cultured for 4 days with tumble blending once per day. After completion of the culture, an intestinal bacterial pellet was obtained from the entire amount of the culture medium by centrifugation (8,000×g, 5 min). DNA was extracted from this pellet using ISOFECAL for BeadsBeat (manufactured by NIPPON GENE CO., LTD.), and quantitative PCR was performed using GeneAce SYBR qPCR Mix α (manufactured by NIPPON GENE CO., LTD.). Quantitative PCR was performed under the conditions of 45 cycles of 95° C. for 30 sec and 60° C. for 60 sec after 95° C. for 10 min. Primers for quantitative PCR used for detection bifidobacteria are as follows.
(§2) Using the results obtained by quantitative PCR, the relative amount when the control is 1 was calculated, and the results were normalized with z-score.

bifidobacteria [2] = experiment: Experimental Example 2: addition test of amino acid and galacto-oligosaccharide to human feces suspension; settings: amino acid added together with 0.5% GOS, compared with GOS alone; human feces suspension in PBS, 4 days; quantitative PCR
Procedure: as §1
The PBS solutions for the Examples and Comparative Examples shown in Table 2 were prepared and used as media for feces culture. […]
as §2

bifidobacteria [3] = experiment: Experimental Example 1-2: addition test of amino acid and fructo-oligosaccharide to human feces suspension; settings: amino acid added together with 0.5% FOS, compared with FOS alone; human feces suspension in PBS, 4 days; quantitative PCR
Procedure: as §1
The PBS solutions for the Examples and Comparative Examples shown in Table 1-2 were prepared and used as media for a feces culture. […]
as §2

## C[C@H](N)C(=O)O [Ala, L-alanine]
Bifidobacteria [1]
  proliferation of bifidobacteria: greater proliferation of bifidobacteria than that with FOS alone

## NC(=O)CC[C@H](N)C(=O)O [Gln, L-glutamine]
Bifidobacteria [1]
  proliferation of bifidobacteria: greater proliferation of bifidobacteria than that with FOS alone

## N[C@@H](CCC(=O)O)C(=O)O [Glu, L-glutamic acid]
Bifidobacteria [1]
  proliferation of bifidobacteria: greater proliferation of bifidobacteria than that with FOS alone
Bifidobacteria [2]
  proliferation of bifidobacteria: greater proliferation of bifidobacteria than that with GOS alone

## N[C@@H](Cc1c[nH]cn1)C(=O)O [His, L-histidine]
Bifidobacteria [3]
  proliferation of bifidobacteria: greater proliferation of bifidobacteria than that with FOS alone

## CC[C@H](C)[C@H](N)C(=O)O [Ile, L-isoleucine]
Bifidobacteria [1]
  proliferation of bifidobacteria: greater proliferation of bifidobacteria than that with FOS alone

## NCCCC[C@H](N)C(=O)O [Lys, L-lysine]
Bifidobacteria [1]
  proliferation of bifidobacteria: greater proliferation of bifidobacteria than that with FOS alone
Bifidobacteria [2]
  proliferation of bifidobacteria: greater proliferation of bifidobacteria than that with GOS alone

## O=C(O)[C@@H]1CCCN1 [Pro, L-proline]
Bifidobacteria [3]
  proliferation of bifidobacteria: greater proliferation of bifidobacteria than that with FOS alone

## CC(C)[C@H](N)C(=O)O [Val, L-valine]
Bifidobacteria [1]
  proliferation of bifidobacteria: greater proliferation of bifidobacteria than that with FOS alone
